The experiment has as its system MDA-MB-436 cells. The experiment can be described thus: Growth inhibition assay against BRCA mutant human breast cancer MDA-MB-436 cell line (CCK-8, 7 days). Format: cell-based.

Bounds are passed on as bounds.

The text below walks through data of US20240368169A1 (priority 2021, published 2024).

Usually IC50 stands for the concentration that gives 50% inhibition. Molecule `CNC(=O)c1ccc(N2CCN(Cc3ccc4c5c(c(=O)[nH]c4c3)COC5)CC2)cn1` [Example 1, 7-((4-(6-(methylcarbamoyl)pyridin-3-yl)piperazin-1-yl)methyl)-3,5-dihydrofuro[3,4-c]quinolin-4(1H)-one] registered an IC50 of 170 nM.
Next, `CNC(=O)c1ccc(N2CCN(Cc3ccc4c5c(c(=O)[nH]c4c3)CCC5)CC2)c(C)n1` [Example 17, 7-((4-(2-methyl-6-(methylcarbamoyl)pyridin-3-yl)piperazin-1-yl)methyl)-1,2,3,5-tetrahydro-4H-cyclopenta[c]quinolin-4-one]: 2.59 nM.
Next, `CNC(=O)c1ccc(N2CCN(Cc3ccc4c(c3)[nH]c(=O)c3cncn34)CC2)c(C)n1` [Example 26, 7-((4-(2-methyl-6-(methylcarbamoyl)pyridin-3-yl)piperazin-1-yl)methyl)imidazo[1,5-a]quinoxalin-4(5H)-one]: 23.9 nM.
The same measure for `CNC(=O)c1ccc(N2CCN(Cc3ccc4c(c3)[nH]c(=O)c3ncnn34)CC2)c(C)n1` [Example 29, 7-((4-(2-methyl-6-(methylcarbamoyl)pyridin-3-yl)piperazin-1-yl)methyl)-[1,2,4]triazolo[1,5-a]quinoxalin-4(5H)-one]: 28.2 nM; for `CNC(=O)c1ccc(N2CCN(Cc3ccc4c(c3)[nH]c(=O)n3ccnc43)CC2)c(C)n1` [Example 31, 8-((4-(2-methyl-6-(methylcarbamoyl)pyridin-3-yl)piperazin-1-yl)methyl)imidazo[1,2-c]quinazolin-5(6H)-one]: 2.08 nM; for `CNC(=O)c1ccc(N2CCN(Cc3ccc4c(c3)[nH]c(=O)c3cccn34)CC2)c(F)n1` [Example 34, 7-((4-(2-fluoro-6-(methylcarbamoyl)pyridin-3-yl)piperazin-1-yl)methyl)pyrrolo[1,2-a]quinoxalin-4(5H)-one]: 0.75 nM.
`CNC(=O)c1ccc(N2CCN(Cc3ccc4c(c3)[nH]c(=O)c3cncn34)CC2)c(Cl)n1` [Example 39, 7-((4-(2-chloro-6-(methylcarbamoyl)pyridin-3-yl)piperazin-1-yl)methyl)imidazo[1,5-a]quinoxalin-4(5H)-one] had an IC50 of 3.56 nM.
Next, `CNC(=O)c1ccc(N2CCN(Cc3cc(F)c4c(c3)[nH]c(=O)c3cccn34)CC2)c(F)n1` [Example 41, 7-((4-(2-fluoro-6-(methylcarbamoyl)pyridin-3-yl)piperazin-1-yl)methyl)-9-fluoropyrrolo[1,2-a]quinoxalin-4(5H)-one]: 1.41 nM; `CNC(=O)c1ccc(N2CCN(Cc3cc(F)c4c(c3)[nH]c(=O)c3cccn34)CC2)c(Cl)n1` [Example 42, 7-((4-(2-chloro-6-(methylcarbamoyl)pyridin-3-yl)piperazin-1-yl)methyl)-9-fluoropyrrolo[1,2-a]quinoxalin-4(5H)-one]: 0.93 nM; `CNC(=O)c1ccc(N2CCN(Cc3cc(F)c4c(c3)[nH]c(=O)c3ccnn34)CC2)c(C)n1` [Example 43, 7-((4-(2-methyl-6-(methylcarbamoyl)pyridin-3-yl)piperazin-1-yl)methyl)-9-fluoropyrazolo[1,5-a]quinoxalin-4(5H)-one]: 1.2 nM.
As for `CNC(=O)c1ccc(N2CCN(Cc3cc(F)c4c(c3)[nH]c(=O)c3ccnn34)CC2)c(Cl)n1` [Example 45, 7-((4-(2-chloro-6-(methylcarbamoyl)pyridin-3-yl)piperazin-1-yl)methyl)-9-fluoropyrazolo[1,5-a]quinoxalin-4(5H)-one], the IC50 amounted to 2.24 nM.
Next, `CNC(=O)c1ccc(N2CCN(Cc3cc(Cl)c4c(c3)[nH]c(=O)c3ccnn34)CC2)c(C)n1` [Example 46, 7-((4-(2-methyl-6-(methylcarbamoyl)pyridin-3-yl)piperazin-1-yl)methyl)-9-chloropyrazolo[1,5-a]quinoxalin-4(5H)-one]: 2.27 nM; `CNC(=O)c1ccc(N2CCN(Cc3cc(Cl)c4c(c3)[nH]c(=O)c3ccnn34)CC2)c(F)n1` [Example 47, 7-((4-(2-fluoro-6-(methylcarbamoyl)pyridin-3-yl)piperazin-1-yl)methyl)-9-chloropyrazolo[1,5-a]quinoxalin-4(5H)-one]: 2.6 nM; `CCNC(=O)c1ccc(N2CCN(Cc3ccc4c5c(c(=O)[nH]c4c3)CCC5)CC2)c(C)n1` [Example 49, 7-((4-(2-methyl-6-(ethylcarbamoyl)pyridin-3-yl)piperazin-1-yl)methyl)-1,2,3,5-tetrahydro-4H-cyclopenta[c]quinolin-4-one]: 2.18 nM.
Next, `CCNC(=O)c1ccc(N2CCN(Cc3ccc4c5c(c(=O)[nH]c4c3)CCC5)CC2)c(Cl)n1` [Example 50, 7-((4-(2-chloro-6-(ethylcarbamoyl)pyridin-3-yl)piperazin-1-yl)methyl)-1,2,3,5-tetrahydro-4H-cyclopenta[c]quinolin-4-one]: 5.7 nM; `CNC(=O)c1ccc(N2CCN(Cc3ccc4c(c3)[nH]c(=O)c3cc(C)cn34)CC2)c(C)n1` [Example 55, 7-((4-(2-methyl-6-(methylcarbamoyl)pyridin-3-yl)piperazin-1-yl)methyl)-2-methylpyrrolo[1,2-a]quinoxalin-4(5H)-one]: 1.44 nM.
On to `CNC(=O)c1ccc(N2CCN(Cc3ccc4c(c3)[nH]c(=O)c3c(C)cnn34)CC2)c(C)n1` [Example 58, 7-((4-(2-methyl-6-(methylcarbamoyl)pyridin-3-yl)piperazin-1-yl)methyl)-3-methylpyrazolo[1,5-a]quinoxalin-4(5H)-one], for which inhibition was half-maximal at 1.87 nM (IC50).
Next, `O=C(NC1CC1)c1ccc(N2CCN(Cc3ccc4c(c3)[nH]c(=O)c3cccn34)CC2)c(F)n1` [Example 60, 7-((4-(2-fluoro-6-(cyclopropylcarbamoyl)pyridin-3-yl)piperazin-1-yl)methyl)pyrrolo[1,2-a]quinoxalin-4(5H)-one]: 0.63 nM.
Consider `O=C(NC1CC1)c1ccc(N2CCN(Cc3ccc4c(c3)[nH]c(=O)c3cccn34)CC2)c(Cl)n1` [Example 61, 7-((4-(2-chloro-6-(cyclopropylcarbamoyl)pyridin-3-yl)piperazin-1-yl)methyl)pyrrolo[1,2-a]quinoxalin-4(5H)-one], for which inhibition was half-maximal at 0.98 nM (IC50).
The same measure for `Cc1nc(C(=O)NC2CC2)ccc1N1CCN(Cc2ccc3c4c(c(=O)[nH]c3c2)COC4)CC1` [Example 63, 7-((4-(2-methyl-6-(cyclopropylcarbamoyl)pyridin-3-yl)piperazin-1-yl)methyl)-3,5-dihydrofuro[3,4-c]quinolin-4(1H)-one]: 3.32 nM.
Molecule `CNC(=O)c1ccc(N2CCN(Cc3ccc4c(c3)[nH]c(=O)c3cccn34)CC2)cn1` [Example 65, 7-((4-(6-(methylcarbamoyl)pyridin-3-yl)piperazin-1-yl)methyl)pyrrolo[1,2-a]quinoxalin-4(5H)-one] yielded an IC50 of 1.12 nM.
The same measure for `CNC(=O)c1ccc(N2CCN(Cc3cc(F)c4c(c3)[nH]c(=O)c3cc(C)nn34)CC2)c(C)n1` [Example 75, 7-((4-(2-methyl-6-(methylcarbamoyl)pyridin-3-yl)piperazin-1-yl)methyl)-9-fluoro-2-methylpyrazolo[1,5-a]quinoxalin-4(5H)-one]: 3.31 nM.
The same measure for `CNC(=O)c1ccc(N2CCN(Cc3cc(F)c4c5c(c(=O)[nH]c4c3)CCC5)CC2)c(C)n1` [Example 79, 7-((4-(2-methyl-6-(methylcarbamoyl)pyridin-3-yl)piperazin-1-yl)methyl)-9-fluoro-1,2,3,5-tetrahydro-4H-cyclopenta[c]quinolin-4-one]: 1.04 nM; for `Cc1nc(C(=O)NC2CC2)ccc1N1CCN(Cc2cc(F)c3c4c(c(=O)[nH]c3c2)CCC4)CC1` [Example 81, 7-((4-(2-methyl-6-(cyclopropylcarbamoyl)pyridin-3-yl)piperazin-1-yl)methyl)-9-fluoro-1,2,3,5-tetrahydro-4H-cyclopenta[c]quinolin-4-one]: 4.67 nM.
The same measure for `O=C(NC1CC1)c1ccc(N2CCN(Cc3cc(F)c4c5c(c(=O)[nH]c4c3)CCC5)CC2)c(F)n1` [Example 82, 7-((4-(2-fluoro-6-(cyclopropylcarbamoyl)pyridin-3-yl)piperazin-1-yl)methyl)-9-fluoro-1,2,3,5-tetrahydro-4H-cyclopenta[c]quinolin-4-one]: 3.66 nM.
Consider `[2H]C([2H])([2H])NC(=O)c1ccc(N2CCN(Cc3cc(F)c4c(c3)[nH]c(=O)c3ccnn34)CC2)c(C)n1` [Example 90, 7-((4-(2-methyl-6-((methyl-d3)-carbamoyl)pyridin-3-yl)piperazin-1-yl)methyl)-9-fluoropyrazolo[1,5-a]quinoxalin-4(5H)-one], for which inhibition was half-maximal at 2.44 nM (IC50).
`CNC(=O)c1ccc(N2CCN(Cc3cc4[nH]c(=O)c5ccnn5c4cc3F)CC2)c(C)n1` [Example 93, 7-((4-(2-methyl-6-(methylcarbamoyl)pyridin-3-yl)piperazin-1-yl)methyl)-8-fluoropyrazolo[1,5-a]quinoxalin-4(5H)-one] had an IC50 of 5.68 nM.
Take `CNC(=O)c1ccc(N2CCN(Cc3cc(F)c4c(c3)[nH]c(=O)n3ccnc43)CC2)c(C)n1` [Example 96, 8-((4-(2-methyl-6-(methylcarbamoyl)pyridin-3-yl)piperazin-1-yl)methyl)-10-fluoroimidazo[1,2-c]quinazolin-5(6H)-one]: 1.93 nM corresponded to half-maximal inhibition (IC50).
Next, `CNC(=O)c1ccc(N2CCN(Cc3cc(F)c4c(c3)[nH]c(=O)c3ccnn34)CC2)cn1` [Example 97, 7-((4-(6-(methylcarbamoyl)pyridin-3-yl)piperazin-1-yl)methyl)-9-fluoropyrazolo[1,5-a]quinoxalin-4(5H)-one]: 111 nM; `CNC(=O)c1ccc(N2CCN(Cc3ccc4c(c3)[nH]c(=O)c3c(Cl)cnn34)CC2)c(F)n1` [Example 99, 7-((4-(2-fluoro-6-(methylcarbamoyl)pyridin-3-yl)piperazin-1-yl)methyl)-3-chloropyrazolo[1,5-a]quinoxalin-4(5H)-one]: 0.54 nM; `Cc1nc(C(=O)O)ccc1N1CCN(Cc2cc(F)c3c(c2)[nH]c(=O)c2ccnn23)CC1` [Example 116, 7-((4-(2-methyl-6-carboxypyridin-3-yl)piperazin-1-yl)methyl)-9-fluoropyrazolo[1,5-a]quinoxalin-4(5H)-one]: > 100 nM.
